Assay results taken from publication PMC9866218, “Characterization and Chemical Synthesis of Cm39 (α-KTx 4.8): A Scorpion Toxin That Inhibits Voltage-Gated K^+ Channel KV1.2 and Small- and Intermediate-Conductance Ca^2+-Activated K^+ Channels KCa2.2 and KCa3.1” (Toxins, 2023).
Entries after “also recorded” stand apart in the source; their conditions may differ.

Experiments:
hKV11.1 = assay: Whole-cell patch-clamp, block of KV11.1 (hERG1) current; type: cell-based, human; conditions: HEK 293 cells
Description: (§1) We, therefore, aimed at testing the pharmacological activity of sCm39 on a battery of various potassium and sodium ion channels. Among the tested channels were six members of human voltage-gated K^+ (hKV) channels from Shaker family, hKV1.1-hKV1.6 (Figure 3A–F) and three members of Ca^2+-activated potassium channel; hKCa2.2 (SK2, Figure 3I), the small-conductance Ca^2+-activated channel; hKCa3.1 (IKCa1, SK4. Figure 3J), the intermediate-conductance Ca^2+-activated channel expressed in T lymphocytes; and mKCa1.1 (BK, Slo1, MaxiK, Figure 3H), the large-conductance voltage- and Ca^2+-activated channel of mice. In addition, we also screened the effect of Cm39 on hKV11.1 (hERG1, Figure 3G), a voltage-gated cardiac K^+ channel, and two human voltage-gated sodium (hNaV) channels, hNaV1.4 (Figure 3K) and hNaV1.5 (Figure 3L), expressed in skeletal and cardiac muscles, respectively. These ion channels were heterologously expressed in the CHO or HEK cell lines except for KV1.3. Human peripheral T lymphocytes. […]
(§2) Whole-cell currents were recorded in voltage-clamped cells following standard protocols by using a Multiclamp 700B amplifier connected to a computer with Axon Digidata1440 digitizer and for data acquisition, Clampex 10.7 software was used (Molecular Devices). […]

hNaV1.4 = assay: Whole-cell patch-clamp, block of NaV1.4 current; type: cell-based, human; conditions: HEK 293 cells
Description: as §1, §2

hKV1.2 = target: T1, hKV1.2 (Homo sapiens, UniProt P16389); assay: Conductance-voltage (G-V) relationship of KV1.2; type: cell-based
T1 construct: GFP (vector pCMV6-AC-GFP); host or cells: CHO cells, transient transfection
Protocol: Mostly, scorpion toxins inhibit the KV channels by physically occluding the pore region of the channel thereby preventing the flow of K^+ ions. […] To confirm the blocking mechanism of Cm39 we determined the conductance–voltage (G–V) relationship for KV1.2 in the absence and presence of the toxin. Whole-cell currents of KV1.2 expressing CHO cells were recorded by applying the 300 ms long depolarization pulses ranging from −70 to +80 in 10 mV steps from Vh of −120 mV. […] The conductance values were calculated for each voltage step, normalized to the maximum conductance and plotted as a function of membrane potential (Em) as shown in Figure 4E. […] The midpoint voltage (V50) of the G–V relationship in the control solution (−1.0 ± 4.8, n = 4) was statistically similar to the V50 value at equilibrium block with 65 nM sCm39 (1.6 ± 4.0, n = 4) as shown in Figure 4F.
Those plasmids which lack a fluorescent tag were co-transfected with a plasmid encoding GFP. Transfections were performed at a GFP:channel DNA molar ratio of 1:10 using the Lipofectamine 2000 kit (Invitrogen) according to the manufacturer’s protocol. GFP expressing cells were identified with the Nikon TE 2000U fluorescence microscope (Nikon, Tokyo, Japan) and used for current recordings (~60–70% success rate for co-transfection). Generally, currents were recorded 24 to 48 h post transfection.
For the measurement of KV1.x, mKCa1.1 and NaV1.x currents the extracellular solution was composed of (in mM) 145 NaCl, 5 KCl, 2.5 CaCl2, 1 MgCl2, 10 HEPES and 5.5 glucose, pH 7.35. In the HK-150 and Na^+-free bath solution bath all Na^+ was substituted by K^+ or Choline-Cl, respectively, other ingredients remained unchanged. In the various TEA^+-containing solutions, Na^+ was substituted by tetraethylammonium-Cl in equimolar concentration (Figure 3). The bath solution for KCa2.2 and KCa3.1 consisted of (in mM) 145 L-Aspartic Na^+ salt, 5 KCl, 2.5 CaCl2, 1 MgCl2, 5.5 glucose and 10 HEPES, pH 7.4 and for KV11.1 (in mM) 140 Choline-Cl, 5 KCl, 2 MgCl2, 2 CaCl2, 10 HEPES, 20 glucose and 0.1 CdCl2, pH 7.35. The osmolarity of bath solutions was ranging between 302 to 308 mOsm/L. A total of 0.1 mg/mL bovine serum albumin (BSA, Sigma-Aldrich, Budapest, Hungary) was added to all the bath solutions before the patch-clamp assay to avoid toxin adsorption to the plastic surfaces of the perfusion system. Internal or pipette solution for recording KV1.x and mKCa1.1 currents consisted of (in mM) 140 KF, 2 MgCl2, 1 CaCl2, 11 EGTA and 10 HEPES, pH 7.22. […]
as §2

T1 sequence (P16389 whole entry): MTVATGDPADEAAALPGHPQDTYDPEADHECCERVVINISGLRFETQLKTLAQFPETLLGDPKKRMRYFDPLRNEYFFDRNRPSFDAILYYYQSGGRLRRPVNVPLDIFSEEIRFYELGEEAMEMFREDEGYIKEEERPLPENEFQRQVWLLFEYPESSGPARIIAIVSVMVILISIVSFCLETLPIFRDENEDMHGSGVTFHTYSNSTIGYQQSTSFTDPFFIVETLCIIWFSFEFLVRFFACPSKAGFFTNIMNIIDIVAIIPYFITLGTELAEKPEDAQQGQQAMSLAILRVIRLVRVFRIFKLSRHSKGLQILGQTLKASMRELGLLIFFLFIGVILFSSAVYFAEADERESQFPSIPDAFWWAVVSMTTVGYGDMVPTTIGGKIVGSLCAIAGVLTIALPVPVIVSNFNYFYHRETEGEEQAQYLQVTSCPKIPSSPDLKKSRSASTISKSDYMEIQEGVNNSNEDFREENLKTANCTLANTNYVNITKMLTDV

## CC[C@H](C)[C@@H]1NC(=O)[C@H](C)NC(=O)[C@H](C)NC(=O)[C@H](CCCCN)NC(=O)[C@@H]2CSSC[C@@H](C(=O)N[C@@H](Cc3ccc(O)cc3)C(=O)N[C@@H](Cc3ccc(O)cc3)C(=O)O)NC(=O)[C@H](CCCCN)NC(=O)[C@@H]3CSSC[C@H](NC(=O)[C@H](CCC(=O)O)NC(=O)[C@H](CO)NC(=O)[C@H](CO)NC(=O)[C@H](CO)NC(=O)[C@H](CCCCN)NC(=O)[C@@H](NC(=O)[C@H](CCCCN)NC(=O)[C@H](Cc4c[nH]cn4)NC(=O)[C@H](CC(N)=O)NC(=O)[C@@H](NC(=O)[C@H](Cc4ccccc4)NC(=O)[C@@H](N)[C@@H](C)O)[C@@H](C)CC)CSSC[C@H](NC(=O)[C@H](CCCCN)NC(=O)CNC(=O)[C@H](CO)NC(=O)[C@H](C)NC(=O)[C@H](CCCNC(=N)N)NC(=O)CNC1=O)C(=O)N[C@@H]([C@@H](C)CC)C(=O)N[C@@H](CC(N)=O)C(=O)N[C@@H](CO)C(=O)N[C@@H]([C@@H](C)O)C(=O)N3)C(=O)N[C@@H](CC(C)C)C(=O)N1CCC[C@H]1C(=O)N[C@@H](C)C(=O)N2 [Cm39]
hKV11.1; 1 μM
  inhibition (in words): does not inhibit; also recorded: did not show any effect
hKV11.1; 1 µM, 3−5 min, n = 3−5
  decrease in current: < 3%
hNaV1.4; 1 μM
  inhibition (in words): does not inhibit; also recorded: did not show any effect
hNaV1.4; 1 µM, 3−5 min, n = 3−5
  decrease in current: < 3%
hKV1.2; 65 nM, CHO cells
  effect on voltage dependence of steady-state activation (conductance–voltage relationship): not altered; also recorded: completely insensitive
hKV1.2; 65 nM, CHO cells, listed as sCm9
  effect on voltage dependence of steady-state activation (conductance–voltage relationship): did not affect the voltage dependence of steady-state activation
hKV1.2; 65 nM, ns = not significant
  Mann–Whitney p, V50 with vs without toxin: 0.89
hKV1.2; equilibrium block with 65 nM sCm39, n = 4, control solution −1.0 ± 4.8, n = 4, CHO cells, ± SEM
  midpoint voltage V50 of the G–V relationship: 1.6 ± 4.0
